Test results published in patent US5599808A, “Aqueous indolocarbazole solutions” (Cephalon, Inc., priority 1995, dated 1997).
Converted amounts (≈) assume the structure as drawn.

Legend:
[1] = cited from earlier work
[2] = Concentration of dissolved indolocarbazole obtained in aqueous solutions (HPLC); details: organic solvent or mixture
Description: In general, a solution of the concentrate can be prepared by combining a dispersant such as polyvinylpyrrolidone C-30 and a selected organic solvent such as propylene glycol into a beaker. The mixture is continuously stirred until completely dissolved. Solid PVP or other solution components may take 1-2 hours to dissolve completely at room temperature.
An amount of an indolocarbazole, for example, staurosporine, K-252a, or any one of indolocarbazole A, B, or C (Table 1) can each be individually weighed and added to a small aliquot of the aqueous solution, resulting in a 10 mg/ml solution after the indolocarbazole completely dissolves. Alternatively, a mixture of indolocarbazoles may be combined, weighed, and added to a small aliquot of the aqueous solution resulting in a 10 mg/ml solution after the indolocarbazole completely dissolves. An indolocarbazole solution can be stirred or shaken vigorously overnight. Any undissolved indolocarbazole is removed by standard centrifugation or filtration techniques. The concentration of solubilized indolocarbazole can be determined by reversed phase HPLC using a UV detector (290 nm).
The following HPLC conditions are used to determine the concentration of an indolocarbazole:
HPLC Column: Zorbax Rx C-18 4.6×250 mm, 5 micron particle size
Prior to injection of an indolocarbazole solution, there is allowed a 10 minute equilibration time.
Fifty g of PEG-400 were added to 50 ml of water and the mixture vigorously stirred until completely dissolved. One mg of either K-252a, staurosporine or the indolocarbazoles B or C (see Table 1) were added individually to a 100 μl aliquot of the PEG-400 solution and the resulting mixture was shaken overnight. The solution was clarified by centrifugation at 1000 rpm for 10 minutes. The supernatant was saved and any residue discarded. Ten μl of the supernatant was removed, diluted with DMSO (100:1) and the concentration of dissolved K-252a determined by HPLC.
Same as example 1 except that PEG-600 was used instead of PEG-400.
Same as example 1 except that PEG-1000 was used instead of PEG-400.
Same as example 1 except that 48 ml of water was used and 2 g of benzyl alcohol was added to the PEG-400 solution.
Same as example 2 except that 48 ml of water was used and 2 g of benzyl alcohol was added to the PEG-600 solution.
Same as example 3 except that 48 ml of water was used and 2 g of benzyl alcohol was added to the PEG-1000 solution.
2.5 g of benzyl alcohol was added to 47.5 g of PEG-400 and, in a separate container, 2.5 g of Pluronic F68 was added to 47.5 ml of water. Each solution was stirred until completely dissolved, then each solution was combined and stirred until homogeneous. One mg of K-252a was added to 100 μl of the solution and the resulting mixture was shaken overnight. The solution was clarified by centrifugation at 1000 rpm for 10 minutes. Ten (10) μl of supernatant was removed, diluted with DMSO (100:1), and the concentration of dissolved K-252a determined by HPLC.
Same as example 7 except that Pluronic™ L61 was used instead of Pluronic™ F68.
Same as example 7 except that Pluronic™ L64 was used instead of Pluronic™ F68.
Same as example 7 except that Tween™ 20 was used instead of Pluronic™ F68.
Same as example 7 except that Tween™ 80 was used instead of Pluronic™ F68.
Same as example 7 except that PVP was used instead of Pluronic™ F68 and PEG-300 was used instead of PEG-400.
Same as example 12 except that PEG-400 was used instead of PEG-300 and indolocarbazoles A, B or C were each solubilized individually in addition to K-252a.
Same as example 12 except that PEG-600 was used instead of PEG-300 and indolocarbazoles A, B or C were each solubilized individually in addition to K-252
Same as example 12 except that PEG-1000 was used instead of PEG-300.
Ten (10) g of Triton X-100 was added to 38 ml of water and the mixture was stirred thoroughly.

protein kinase = details: Berg et al. J. Biol. Chem. 267:13-16 (1992); cited from earlier work

**Q.** For `COC(=O)C1(O)CC2OC1(C)n1c3ccccc3c3c4c(c5c6ccccc6n2c5c31)C(=O)NC4` (centres unmarked) [Compound K-252a], which insolubility in water ([1]; Nakanishi et al.) is on record?
**A.** insolubility

**Q.** And the “solubility in non-aqueous, toxic solvents” value ([1]; non-aqueous, toxic solvents)?
**A.** soluble in non-aqueous, toxic solvents

**Q.** What about the solubility in water ([1]; water) of the same compound?
**A.** insoluble in water

**Q.** What about the solubility thermodynamic ([2]; 50% peg 400, 50% h2o, Concentration Obtained, Example 1: 50% PEG 400, 50% H2O, target 10 mg/ml) of the same compound?
**A.** 1390 µg/mL (≈ 2.97 mM)

**Q.** What about the solubility thermodynamic ([2]; 50% peg 600, 50% h2o, Concentration Obtained, Example 2: 50% PEG 600, 50% H2O, target 10 mg/ml) of the same compound?
**A.** 1920 µg/mL (≈ 4.11 mM)

**Q.** What about the solubility thermodynamic ([2]; 50% peg 1000, 50% h2o, Concentration Obtained, Example 3: 50% PEG 1000, 50% H2O, target 10 mg/ml) of the same compound?
**A.** 1820 µg/mL (≈ 3.89 mM)

**Q.** What about the solubility thermodynamic ([2]; peg 300/ba/pvp/h2o, Concentration Obtained, Example 12: 47.5% PEG 300, 2.5% BA, 2.5% PVP, 47.5% H2O, target 10 mg/ml) of the same compound?
**A.** 9600 µg/mL (≈ 20.5 mM)

**Q.** And the solubility thermodynamic ([2]; peg 400/ba/h2o, Concentration Obtained, Example 4: 50% PEG 400, 2% BA, 48% H2O, target 10 mg/ml)?
**A.** 2080 µg/mL (≈ 4.45 mM)

**Q.** And the solubility thermodynamic ([2]; peg 400/ba/pluronic f68/h2o, Concentration Obtained, Example 7: 47.5% PEG 400, 2.5% BA, 2.5% Pluronic F68, 47.5% H2O, target 10 mg/ml)?
**A.** 5500 µg/mL (≈ 11.8 mM)

**Q.** What about the solubility thermodynamic ([2]; peg 400/ba/pluronic l61/h2o, Concentration Obtained, Example 8: 47.5% PEG 400, 2.5% BA, 2.5% Pluronic L61, 47.5% H2O, target 10 mg/ml) of the same compound?
**A.** 3500 µg/mL (≈ 7.49 mM)

**Q.** And the solubility thermodynamic ([2]; peg 400/ba/pluronic l64/h2o, Concentration Obtained, Example 9: 47.5% PEG 400, 2.5% BA, 2.5% Pluronic L64, 47.5% H2O, target 10 mg/ml)?
**A.** 1800 µg/mL (≈ 3.85 mM)

**Q.** What about the solubility thermodynamic ([2]; peg 400/ba/pvp/h2o, Concentration Obtained, Example 13: 47.5% PEG 400, 2.5% BA, 2.5% PVP, 47.5% H2O, target 10 mg/ml) of the same compound?
**A.** 10000 µg/mL (≈ 21.4 mM)

**Q.** What about the solubility thermodynamic ([2]; peg 400/ba/tween 20/h2o, Concentration Obtained, Example 10: 47.5% PEG 400, 2.5% BA, 2.5% Tween 20, 47.5% H2O, target 10 mg/ml) of the same compound?
**A.** 6000 µg/mL (≈ 12.8 mM)

**Q.** And the solubility thermodynamic ([2]; peg 400/ba/tween 80/h2o, Concentration Obtained, Example 11: 47.5% PEG 400, 2.5% BA, 2.5% Tween 80, 47.5% H2O, target 10 mg/ml)?
**A.** 3700 µg/mL (≈ 7.91 mM)

**Q.** What about the solubility thermodynamic ([2]; peg 600/ba/h2o, Concentration Obtained, Example 5: 50% PEG 600, 2% BA, 48% H2O, target 10 mg/ml) of the same compound?
**A.** 2720 µg/mL (≈ 5.82 mM)

**Q.** And the solubility thermodynamic ([2]; peg 600/ba/pvp/h2o, Concentration Obtained (saturation level), Example 20: 47.5% PEG 600, 2.5% BA, 2.5% PVP, 47.5% H2O, 10 mg added)?
**A.** 10000 µg/mL (≈ 21.4 mM)

**Q.** What about the solubility thermodynamic ([2]; peg 600/ba/pvp/h2o, Concentration Obtained (saturation level), Example 22: 50% PEG 600, 2% BA, 10% PVP, 38% H2O, 10 mg added) of the same compound?
**A.** 21200 µg/mL (≈ 45.3 mM)

**Q.** And the solubility thermodynamic ([2]; peg 600/ba/pvp/h2o, Concentration Obtained, Example 14: 47.5% PEG 600, 2.5% BA, 2.5% PVP, 47.5% H2O, target 10 mg/ml)?
**A.** 10000 µg/mL (≈ 21.4 mM)

**Q.** What about the solubility thermodynamic ([2]; peg 600/ba/pvp/h2o, Concentration Obtained, Example 18: 50% PEG 600, 2% BA, 10% PVP, 38% H2O, target 10 mg/ml) of the same compound?
**A.** 10000 µg/mL (≈ 21.4 mM)

**Q.** What about the solubility thermodynamic ([2]; peg 600/ba/triton x-100/h2o, Concentration Obtained, Example 16: 50% PEG 600, 2% BA, 10% Triton X-100, 38% H2O, target 10 mg/ml) of the same compound?
**A.** 10000 µg/mL (≈ 21.4 mM)

**Q.** What about the solubility thermodynamic ([2]; peg 600/ba/tween 80/h2o, Concentration Obtained, Example 17: 50% PEG 600, 2% BA, 10% Tween 80, 38% H2O, target 10 mg/ml) of the same compound?
**A.** 8830 µg/mL (≈ 18.9 mM)

**Q.** And the solubility thermodynamic ([2]; peg 1000/ba/h2o, Concentration Obtained, Example 6: 50% PEG 1000, 2% BA, 48% H2O, target 10 mg/ml)?
**A.** 1830 µg/mL (≈ 3.91 mM)

**Q.** And the solubility thermodynamic ([2]; peg 1000/ba/pvp/h2o, Concentration Obtained (saturation level), Example 21: 47.5% PEG 1000, 2.5% BA, 2.5% PVP, 47.5% H2O, 10 mg added)?
**A.** 14100 µg/mL (≈ 30.2 mM)

**Q.** And the solubility thermodynamic ([2]; peg 1000/ba/pvp/h2o, Concentration Obtained, Example 15: 47.5% PEG 1000, 2.5% BA, 2.5% PVP, 47.5% H2O, target 10 mg/ml)?
**A.** 10000 µg/mL (≈ 21.4 mM)

**Q.** What about the solubility thermodynamic ([2]; peg 1000/ba/pvp/h2o, Concentration Obtained, Example 19: 40% PEG 1000, 2% BA, 10% PVP, 48% H2O, target 10 mg/ml) of the same compound?
**A.** 10000 µg/mL (≈ 21.4 mM)

**Q.** And the “modulation of neurotrophin responses by affecting protein kinase activity” value (protein kinase)?
**A.** modulate neurotrophin responses
